Source: PubChem BioAssay AID1259407 (Chemical Carcinogenesis Research Information System (CCRIS), 2018)
Calls of active or inactive are those of the source. How the calls were made is not given here.

Tested on: CCRIS mutagenicity, Ames/micronucleus/aberration tests
Assay: CCRIS mutagenicity studies
[1] = Test System: AMES SALMONELLA TYPHIMURIUM, Strain/Indicator: TA98, Metabolic Activation: NONE, Method: PREINCUBATION
[2] = Test System: AMES SALMONELLA TYPHIMURIUM, Strain/Indicator: TA100, Metabolic Activation: NONE, Method: PREINCUBATION
[3] = Test System: AMES SALMONELLA TYPHIMURIUM, Strain/Indicator: TA98, Metabolic Activation: RAT, LIVER, S-9, AROCLOR 1254, Method: STANDARD PLATE

Measured: mutagenic call

O=[N+]([O-])c1ccc2c(c1)Oc1ccc([N+](=O)[O-])cc1O2
active: Test System: AMES SALMONELLA TYPHIMURIUM, Strain/Indicator: TA98(1,8-DNP6), Metabolic Activation: NONE, Method: PREINCUBATION active; positive | Test System: AMES SALMONELLA TYPHIMURIUM, Strain/Indicator: TA98(1,8-DNP6), Metabolic Activation: NONE, Method: SUSPENSION active; positive | Test System: AMES SALMONELLA TYPHIMURIUM, Strain/Indicator: TA98(1,8-DNP6), Metabolic Activation: RAT, LIVER, S-9, PCB (5%), Method: PREINCUBATION active; positive | Test System: AMES SALMONELLA TYPHIMURIUM, Strain/Indicator: TA98(NR), Metabolic Activation: NONE, Method: SUSPENSION active; positive | Test System: AMES SALMONELLA TYPHIMURIUM, Strain/Indicator: TA98(NR), Metabolic Activation: RAT, LIVER, S-9 (15%), Method: PREINCUBATION active; positive | Test System: AMES SALMONELLA TYPHIMURIUM, Strain/Indicator: TA98(NR), Metabolic Activation: RAT, LIVER, S-9, 3-METHYLCHOLANTHRENE (15%), Method: PREINCUBATION active; positive | Test System: AMES SALMONELLA TYPHIMURIUM, Strain/Indicator: TA98(NR), Metabolic Activation: RAT, LIVER, S-9, BETA-NAPHTHOFLAVONE (15%), Method: PREINCUBATION active; positive | Test System: AMES SALMONELLA TYPHIMURIUM, Strain/Indicator: TA98(NR), Metabolic Activation: RAT, LIVER, S-9, PCB (5 OR 15%), Method: PREINCUBATION active; positive | Test System: AMES SALMONELLA TYPHIMURIUM, Strain/Indicator: TA98(NR), Metabolic Activation: RAT, LIVER, S-9, PHENOBARBITAL (15%), Method: PREINCUBATION active; positive | [1] active; positive | Test System: AMES SALMONELLA TYPHIMURIUM, Strain/Indicator: TA98, Metabolic Activation: NONE, Method: SUSPENSION active; positive | Test System: AMES SALMONELLA TYPHIMURIUM, Strain/Indicator: TA98, Metabolic Activation: RAT, LIVER, S-9, PCB (5%), Method: PREINCUBATION active; positive | Test System: AMES SALMONELLA TYPHIMURIUM, Strain/Indicator: TA98, Metabolic Activation: RAT, LIVER, S-9, PCB, Method: SUSPENSION active; positive
inactive: Test System: AMES SALMONELLA TYPHIMURIUM, Strain/Indicator: TA98(NR), Metabolic Activation: NONE, Method: PREINCUBATION inactive; negative | [2] inactive; negative | Test System: AMES SALMONELLA TYPHIMURIUM, Strain/Indicator: TA100, Metabolic Activation: NONE, Method: SUSPENSION inactive; negative | Test System: AMES SALMONELLA TYPHIMURIUM, Strain/Indicator: TA100, Metabolic Activation: RAT, LIVER, S-9, PCB, Method: PREINCUBATION inactive; negative | Test System: AMES SALMONELLA TYPHIMURIUM, Strain/Indicator: TA100, Metabolic Activation: RAT, LIVER, S-9, PCB, Method: SUSPENSION inactive; negative

FC(C(F)(F)F)C(F)(F)F
inactive: Test System: AMES SALMONELLA TYPHIMURIUM, Strain/Indicator: TA98, Metabolic Activation: NONE, Method: DESICCATOR inactive; negative | Test System: AMES SALMONELLA TYPHIMURIUM, Strain/Indicator: TA98, Metabolic Activation: NONE, Method: VAPOR CHAMBER inactive; negative | Test System: AMES SALMONELLA TYPHIMURIUM, Strain/Indicator: TA98, Metabolic Activation: RAT, LIVER, S-9, AROCLOR 1254, Method: DESICCATOR inactive; negative | Test System: AMES SALMONELLA TYPHIMURIUM, Strain/Indicator: TA98, Metabolic Activation: RAT, LIVER, S-9, AROCLOR 1254, Method: VAPOR CHAMBER inactive; negative | Test System: AMES SALMONELLA TYPHIMURIUM, Strain/Indicator: TA100, Metabolic Activation: NONE, Method: DESICCATOR inactive; negative | Test System: AMES SALMONELLA TYPHIMURIUM, Strain/Indicator: TA100, Metabolic Activation: NONE, Method: VAPOR CHAMBER inactive; negative | Test System: AMES SALMONELLA TYPHIMURIUM, Strain/Indicator: TA100, Metabolic Activation: RAT, LIVER, S-9, AROCLOR 1254, Method: DESICCATOR inactive; negative | Test System: AMES SALMONELLA TYPHIMURIUM, Strain/Indicator: TA100, Metabolic Activation: RAT, LIVER, S-9, AROCLOR 1254, Method: VAPOR CHAMBER inactive; negative | Test System: AMES SALMONELLA TYPHIMURIUM, Strain/Indicator: TA1535, Metabolic Activation: NONE, Method: DESICCATOR inactive; negative | Test System: AMES SALMONELLA TYPHIMURIUM, Strain/Indicator: TA1535, Metabolic Activation: NONE, Method: VAPOR CHAMBER inactive; negative | Test System: AMES SALMONELLA TYPHIMURIUM, Strain/Indicator: TA1535, Metabolic Activation: RAT, LIVER, S-9, AROCLOR 1254, Method: DESICCATOR inactive; negative | Test System: AMES SALMONELLA TYPHIMURIUM, Strain/Indicator: TA1535, Metabolic Activation: RAT, LIVER, S-9, AROCLOR 1254, Method: VAPOR CHAMBER inactive; negative | Test System: AMES SALMONELLA TYPHIMURIUM, Strain/Indicator: TA1537, Metabolic Activation: NONE, Method: DESICCATOR inactive; negative | Test System: AMES SALMONELLA TYPHIMURIUM, Strain/Indicator: TA1537, Metabolic Activation: NONE, Method: VAPOR CHAMBER inactive; negative | Test System: AMES SALMONELLA TYPHIMURIUM, Strain/Indicator: TA1537, Metabolic Activation: RAT, LIVER, S-9, AROCLOR 1254, Method: DESICCATOR inactive; negative | Test System: AMES SALMONELLA TYPHIMURIUM, Strain/Indicator: TA1537, Metabolic Activation: RAT, LIVER, S-9, AROCLOR 1254, Method: VAPOR CHAMBER inactive; negative | Test System: AMES SALMONELLA TYPHIMURIUM, Strain/Indicator: TA1538, Metabolic Activation: NONE, Method: DESICCATOR inactive; negative | Test System: AMES SALMONELLA TYPHIMURIUM, Strain/Indicator: TA1538, Metabolic Activation: NONE, Method: VAPOR CHAMBER inactive; negative | Test System: AMES SALMONELLA TYPHIMURIUM, Strain/Indicator: TA1538, Metabolic Activation: RAT, LIVER, S-9, AROCLOR 1254, Method: DESICCATOR inactive; negative | Test System: AMES SALMONELLA TYPHIMURIUM, Strain/Indicator: TA1538, Metabolic Activation: RAT, LIVER, S-9, AROCLOR 1254, Method: VAPOR CHAMBER inactive; negative | Test System: MOUSE LYMPHOMA, Strain/Indicator: L5178Y (TK+/TK-), Metabolic Activation: NONE, Method: SUSPENSION/PLATE inactive; negative | Test System: MOUSE LYMPHOMA, Strain/Indicator: L5178Y (TK+/TK-), Metabolic Activation: RAT, LIVER, S-9, AROCLOR 1254, Method: SUSPENSION/PLATE inactive; negative

CCN(CC)S(=O)(=O)c1ccc(N)cc1
inactive: [1] inactive; negative | Test System: AMES SALMONELLA TYPHIMURIUM, Strain/Indicator: TA98, Metabolic Activation: RAT, LIVER, S-9, AROCLOR 1254, Method: PREINCUBATION inactive; negative | [2] inactive; negative | Test System: AMES SALMONELLA TYPHIMURIUM, Strain/Indicator: TA100, Metabolic Activation: RAT, LIVER, S-9, AROCLOR 1254, Method: PREINCUBATION inactive; negative

O=[N+]([O-])c1ccc2cc3c(cc2c1)[C@H](O)[C@@H](O)C=C3
active: Test System: AMES SALMONELLA TYPHIMURIUM, Strain/Indicator: TA98, Metabolic Activation: NONE, Method: STANDARD PLATE active; positive | [3] active; positive

Cc1cc2nccnc2c2nc(N)n(C)c12
active: [3] active; positive

C[N+](C)(C)NCCC(=O)[O-]
inactive: Test System: AMES SALMONELLA TYPHIMURIUM, Strain/Indicator: TA98, Metabolic Activation: NONE inactive; negative | Test System: AMES SALMONELLA TYPHIMURIUM, Strain/Indicator: TA98, Metabolic Activation: RAT LIVER S-9, AROCLOR 1254 inactive; negative | Test System: AMES SALMONELLA TYPHIMURIUM, Strain/Indicator: TA100, Metabolic Activation: NONE inactive; negative | Test System: AMES SALMONELLA TYPHIMURIUM, Strain/Indicator: TA100, Metabolic Activation: RAT LIVER S-9, AROCLOR 1254 inactive; negative

COc1cc2nc3cc(N)c(OC)cc3nc2cc1N
active: Test System: AMES SALMONELLA TYPHIMURIUM, Strain/Indicator: TA98, Metabolic Activation: S-9, Method: SUSPENSION/PLATE active; positive
